Experimental data reported in patent US20230391768A2, “IMIDAZOPYRIDINE DERIVATIVES AND AZA-IMIDAZOPYRIDINE DERIVATIVES AS JANUS KINASE 2 INHIBITORS AND USES THEREOF” (Dana-Farber Cancer Institute, Inc., priority 2018, published 2023).

Assays:
Experiment in all cases: KINOMEscan
Format in all cases: binding
[1] = tested on: FLT3 (ITD,D835V); conditions: 1 μM
Procedure: (§1) In vitro profiling of Compound I-2 (1 μM) was performed using the DiscoveRx KINOMEscan® platform.

[2] = molecular target: ROCK1 (Homo sapiens (Human), UniProt Q13464); conditions: read-out: percent of control
Procedure: as §1

[3] = molecular target: BMPR1B (Homo sapiens (Human), UniProt O00238); conditions: read-out: percent of control
Procedure: as §1

[4] = molecular target: GFR(L747-S752del, P753S (Homo sapiens (Human), UniProt P00533, DEL747-752/P753S)); conditions: read-out: percent of control
Procedure: as §1

[5] = molecular target: PIK3CA(Q546K) (Homo sapiens (Human), UniProt P42336, Q546K); conditions: read-out: percent of control
Chain of PIK3CA(Q546K) (P42336 whole entry Q546K): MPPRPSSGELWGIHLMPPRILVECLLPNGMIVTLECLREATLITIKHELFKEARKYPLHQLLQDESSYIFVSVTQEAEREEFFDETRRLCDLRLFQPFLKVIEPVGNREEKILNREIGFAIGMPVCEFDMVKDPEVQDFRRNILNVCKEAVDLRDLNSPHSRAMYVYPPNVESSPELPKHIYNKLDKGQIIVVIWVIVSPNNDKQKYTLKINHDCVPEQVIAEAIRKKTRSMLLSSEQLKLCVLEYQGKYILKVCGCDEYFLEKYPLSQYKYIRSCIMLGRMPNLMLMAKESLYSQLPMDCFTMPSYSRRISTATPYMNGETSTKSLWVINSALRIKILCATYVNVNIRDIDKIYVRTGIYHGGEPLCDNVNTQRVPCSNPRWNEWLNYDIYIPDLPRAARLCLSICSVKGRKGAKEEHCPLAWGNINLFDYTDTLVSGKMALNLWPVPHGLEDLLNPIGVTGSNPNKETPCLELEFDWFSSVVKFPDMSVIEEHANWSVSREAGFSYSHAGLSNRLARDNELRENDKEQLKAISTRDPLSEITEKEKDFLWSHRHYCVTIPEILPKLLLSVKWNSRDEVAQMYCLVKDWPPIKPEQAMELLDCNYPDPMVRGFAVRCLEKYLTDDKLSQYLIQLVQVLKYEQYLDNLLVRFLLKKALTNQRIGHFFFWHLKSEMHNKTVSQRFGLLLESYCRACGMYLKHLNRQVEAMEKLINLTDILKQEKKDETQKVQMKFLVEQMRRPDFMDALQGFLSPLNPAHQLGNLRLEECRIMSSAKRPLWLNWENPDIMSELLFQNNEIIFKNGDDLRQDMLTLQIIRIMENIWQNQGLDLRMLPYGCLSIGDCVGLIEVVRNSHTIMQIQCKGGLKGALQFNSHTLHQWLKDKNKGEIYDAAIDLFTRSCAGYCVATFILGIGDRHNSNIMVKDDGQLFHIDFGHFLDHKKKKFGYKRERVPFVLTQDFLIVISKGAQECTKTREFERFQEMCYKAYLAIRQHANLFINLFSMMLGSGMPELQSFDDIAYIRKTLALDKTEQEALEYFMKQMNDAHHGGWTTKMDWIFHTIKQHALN
Procedure: as §1

[6] = molecular target: PIP5K1C (Homo sapiens (Human), UniProt O60331); conditions: read-out: percent of control
Procedure: as §1

[7] = molecular target: TRPM6 (Homo sapiens (Human), UniProt Q9BX84); conditions: read-out: percent of control
Procedure: as §1

[8] = molecular target: EPHB4 (Homo sapiens (Human), UniProt P54760); conditions: read-out: percent of control
Procedure: as §1

[9] = molecular target: PIP5K1A (Homo sapiens (Human), UniProt Q99755); conditions: read-out: percent of control
Chain of PIP5K1A (Q99755 whole entry): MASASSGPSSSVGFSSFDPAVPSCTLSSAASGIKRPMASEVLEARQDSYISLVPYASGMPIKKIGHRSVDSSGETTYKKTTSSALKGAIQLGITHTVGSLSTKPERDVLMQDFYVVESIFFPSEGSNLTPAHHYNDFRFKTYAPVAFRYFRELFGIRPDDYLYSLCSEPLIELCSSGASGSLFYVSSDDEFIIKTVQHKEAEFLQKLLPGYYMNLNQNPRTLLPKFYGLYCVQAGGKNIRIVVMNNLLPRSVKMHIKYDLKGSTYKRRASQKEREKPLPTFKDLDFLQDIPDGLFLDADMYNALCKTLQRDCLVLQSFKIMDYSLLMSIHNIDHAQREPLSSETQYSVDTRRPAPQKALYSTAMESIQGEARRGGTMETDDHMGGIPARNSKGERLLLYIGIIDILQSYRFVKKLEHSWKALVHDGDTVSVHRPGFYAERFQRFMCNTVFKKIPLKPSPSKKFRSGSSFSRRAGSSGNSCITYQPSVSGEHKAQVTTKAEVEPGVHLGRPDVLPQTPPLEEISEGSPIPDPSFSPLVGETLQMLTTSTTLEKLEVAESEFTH
Procedure: as §1

[10] = molecular target: STK35 (Homo sapiens (Human), UniProt Q8TDR2); conditions: read-out: percent of control
Procedure: as §1

[11] = molecular target: MAP3K2 (Homo sapiens (Human), UniProt Q9Y2U5); conditions: read-out: percent of control
Procedure: as §1

[12] = molecular target: JNK1 (Homo sapiens (Human), UniProt P45983); conditions: read-out: percent of control
Procedure: as §1

[13] = molecular target: BRAF (Homo sapiens (Human), UniProt P15056); conditions: read-out: percent of control
Chain of BRAF (P15056 whole entry): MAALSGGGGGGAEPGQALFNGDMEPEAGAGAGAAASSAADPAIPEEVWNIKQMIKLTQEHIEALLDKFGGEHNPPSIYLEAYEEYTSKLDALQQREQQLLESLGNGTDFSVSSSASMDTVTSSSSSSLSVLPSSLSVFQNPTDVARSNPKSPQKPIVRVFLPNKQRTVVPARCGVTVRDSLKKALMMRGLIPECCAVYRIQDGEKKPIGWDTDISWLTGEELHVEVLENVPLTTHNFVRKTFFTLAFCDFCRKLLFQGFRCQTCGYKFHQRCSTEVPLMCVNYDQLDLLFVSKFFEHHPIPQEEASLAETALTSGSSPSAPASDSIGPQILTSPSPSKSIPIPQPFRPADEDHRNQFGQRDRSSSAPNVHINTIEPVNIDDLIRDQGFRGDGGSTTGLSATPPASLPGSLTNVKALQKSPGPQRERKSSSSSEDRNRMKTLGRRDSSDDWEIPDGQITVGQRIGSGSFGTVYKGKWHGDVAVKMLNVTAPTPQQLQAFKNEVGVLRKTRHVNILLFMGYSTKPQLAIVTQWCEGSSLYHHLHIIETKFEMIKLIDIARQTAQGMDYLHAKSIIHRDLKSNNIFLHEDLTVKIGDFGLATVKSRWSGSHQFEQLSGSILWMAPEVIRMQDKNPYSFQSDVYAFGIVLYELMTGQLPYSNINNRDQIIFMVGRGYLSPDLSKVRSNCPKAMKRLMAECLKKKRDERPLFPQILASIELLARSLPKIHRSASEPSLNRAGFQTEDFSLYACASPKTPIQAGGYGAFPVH
Procedure: as §1

[14] = molecular target: MAP3K1 (Homo sapiens (Human), UniProt Q13233); conditions: read-out: percent of control
Procedure: as §1

[15] = tested on: EGFR(L747-T751del,Sins); conditions: 1 μM
Procedure: as §1

[16] = molecular target: AKT1 (Homo sapiens (Human), UniProt P31749); conditions: read-out: percent of control
Procedure: as §1

[17] = molecular target: NDR2 (Homo sapiens (Human), UniProt Q9Y2H1); conditions: read-out: percent of control
Procedure: as §1

[18] = molecular target: DCAMKL3 (Homo sapiens (Human), UniProt Q9C098); conditions: read-out: percent of control
Procedure: as §1

[19] = molecular target: PIP5K2B (Homo sapiens (Human), UniProt P78356); conditions: read-out: percent of control
Procedure: as §1

[20] = molecular target: DDR2 (Homo sapiens (Human), UniProt Q16832); conditions: read-out: percent of control
Procedure: as §1

[21] = molecular target: PIK3CA(H1047Y) (Homo sapiens (Human), UniProt P42336, H1047Y); conditions: read-out: percent of control
Chain of PIK3CA(H1047Y) (P42336 whole entry H1047Y): as the sequence (P42336 whole entry Q546K) above, with K546Q, H1047Y counted along it
Procedure: as §1

[22] = molecular target: RSK4 (Kin.Dom.2-C-terminal) (Homo sapiens (Human), UniProt Q9UK32); conditions: read-out: percent of control
Chain of RSK4 (Kin.Dom.2-C-terminal) (Q9UK32 426-683): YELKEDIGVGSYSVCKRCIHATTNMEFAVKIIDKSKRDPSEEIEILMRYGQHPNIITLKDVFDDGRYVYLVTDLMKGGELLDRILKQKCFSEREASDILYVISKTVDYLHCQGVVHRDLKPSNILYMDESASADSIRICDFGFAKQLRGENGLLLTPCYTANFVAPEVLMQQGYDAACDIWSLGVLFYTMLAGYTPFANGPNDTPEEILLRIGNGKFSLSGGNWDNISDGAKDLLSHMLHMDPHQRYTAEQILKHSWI
Procedure: as §1

[23] = molecular target: CSF1R (Homo sapiens (Human), UniProt P07333); conditions: read-out: percent of control
Procedure: as §1

[24] = molecular target: CDC2L5 (Homo sapiens (Human), UniProt Q14004); conditions: read-out: percent of control
Procedure: as §1

[25] = molecular target: FLT3 (Homo sapiens (Human), UniProt P36888); conditions: read-out: percent of control
Procedure: as §1

[26] = molecular target: RET (V804M) (Homo sapiens (Human), UniProt P07949, V804M); conditions: read-out: percent of control
Procedure: as §1

[27] = molecular target: PKNB (M.tuberculosis) (Mycobacterium tuberculosis (strain ATCC 25618 / H37Rv), UniProt P9WI81); conditions: read-out: percent of control
Procedure: as §1

[28] = molecular target: NEK2 (Homo sapiens (Human), UniProt P51955); conditions: read-out: percent of control
Procedure: as §1

[29] = molecular target: ALK(C1156Y) (Homo sapiens (Human), UniProt Q9UM73, C1156Y); conditions: read-out: percent of control
Procedure: as §1

[30] = molecular target: SYK (Homo sapiens (Human), UniProt P43405); conditions: read-out: percent of control
Procedure: as §1

[31] = molecular target: PRKD3 (Homo sapiens (Human), UniProt O94806); conditions: read-out: percent of control
Procedure: as §1

[32] = molecular target: WNK1 (Homo sapiens (Human), UniProt Q9H4A3); conditions: read-out: percent of control
Chain of WNK1 (Q9H4A3 whole entry): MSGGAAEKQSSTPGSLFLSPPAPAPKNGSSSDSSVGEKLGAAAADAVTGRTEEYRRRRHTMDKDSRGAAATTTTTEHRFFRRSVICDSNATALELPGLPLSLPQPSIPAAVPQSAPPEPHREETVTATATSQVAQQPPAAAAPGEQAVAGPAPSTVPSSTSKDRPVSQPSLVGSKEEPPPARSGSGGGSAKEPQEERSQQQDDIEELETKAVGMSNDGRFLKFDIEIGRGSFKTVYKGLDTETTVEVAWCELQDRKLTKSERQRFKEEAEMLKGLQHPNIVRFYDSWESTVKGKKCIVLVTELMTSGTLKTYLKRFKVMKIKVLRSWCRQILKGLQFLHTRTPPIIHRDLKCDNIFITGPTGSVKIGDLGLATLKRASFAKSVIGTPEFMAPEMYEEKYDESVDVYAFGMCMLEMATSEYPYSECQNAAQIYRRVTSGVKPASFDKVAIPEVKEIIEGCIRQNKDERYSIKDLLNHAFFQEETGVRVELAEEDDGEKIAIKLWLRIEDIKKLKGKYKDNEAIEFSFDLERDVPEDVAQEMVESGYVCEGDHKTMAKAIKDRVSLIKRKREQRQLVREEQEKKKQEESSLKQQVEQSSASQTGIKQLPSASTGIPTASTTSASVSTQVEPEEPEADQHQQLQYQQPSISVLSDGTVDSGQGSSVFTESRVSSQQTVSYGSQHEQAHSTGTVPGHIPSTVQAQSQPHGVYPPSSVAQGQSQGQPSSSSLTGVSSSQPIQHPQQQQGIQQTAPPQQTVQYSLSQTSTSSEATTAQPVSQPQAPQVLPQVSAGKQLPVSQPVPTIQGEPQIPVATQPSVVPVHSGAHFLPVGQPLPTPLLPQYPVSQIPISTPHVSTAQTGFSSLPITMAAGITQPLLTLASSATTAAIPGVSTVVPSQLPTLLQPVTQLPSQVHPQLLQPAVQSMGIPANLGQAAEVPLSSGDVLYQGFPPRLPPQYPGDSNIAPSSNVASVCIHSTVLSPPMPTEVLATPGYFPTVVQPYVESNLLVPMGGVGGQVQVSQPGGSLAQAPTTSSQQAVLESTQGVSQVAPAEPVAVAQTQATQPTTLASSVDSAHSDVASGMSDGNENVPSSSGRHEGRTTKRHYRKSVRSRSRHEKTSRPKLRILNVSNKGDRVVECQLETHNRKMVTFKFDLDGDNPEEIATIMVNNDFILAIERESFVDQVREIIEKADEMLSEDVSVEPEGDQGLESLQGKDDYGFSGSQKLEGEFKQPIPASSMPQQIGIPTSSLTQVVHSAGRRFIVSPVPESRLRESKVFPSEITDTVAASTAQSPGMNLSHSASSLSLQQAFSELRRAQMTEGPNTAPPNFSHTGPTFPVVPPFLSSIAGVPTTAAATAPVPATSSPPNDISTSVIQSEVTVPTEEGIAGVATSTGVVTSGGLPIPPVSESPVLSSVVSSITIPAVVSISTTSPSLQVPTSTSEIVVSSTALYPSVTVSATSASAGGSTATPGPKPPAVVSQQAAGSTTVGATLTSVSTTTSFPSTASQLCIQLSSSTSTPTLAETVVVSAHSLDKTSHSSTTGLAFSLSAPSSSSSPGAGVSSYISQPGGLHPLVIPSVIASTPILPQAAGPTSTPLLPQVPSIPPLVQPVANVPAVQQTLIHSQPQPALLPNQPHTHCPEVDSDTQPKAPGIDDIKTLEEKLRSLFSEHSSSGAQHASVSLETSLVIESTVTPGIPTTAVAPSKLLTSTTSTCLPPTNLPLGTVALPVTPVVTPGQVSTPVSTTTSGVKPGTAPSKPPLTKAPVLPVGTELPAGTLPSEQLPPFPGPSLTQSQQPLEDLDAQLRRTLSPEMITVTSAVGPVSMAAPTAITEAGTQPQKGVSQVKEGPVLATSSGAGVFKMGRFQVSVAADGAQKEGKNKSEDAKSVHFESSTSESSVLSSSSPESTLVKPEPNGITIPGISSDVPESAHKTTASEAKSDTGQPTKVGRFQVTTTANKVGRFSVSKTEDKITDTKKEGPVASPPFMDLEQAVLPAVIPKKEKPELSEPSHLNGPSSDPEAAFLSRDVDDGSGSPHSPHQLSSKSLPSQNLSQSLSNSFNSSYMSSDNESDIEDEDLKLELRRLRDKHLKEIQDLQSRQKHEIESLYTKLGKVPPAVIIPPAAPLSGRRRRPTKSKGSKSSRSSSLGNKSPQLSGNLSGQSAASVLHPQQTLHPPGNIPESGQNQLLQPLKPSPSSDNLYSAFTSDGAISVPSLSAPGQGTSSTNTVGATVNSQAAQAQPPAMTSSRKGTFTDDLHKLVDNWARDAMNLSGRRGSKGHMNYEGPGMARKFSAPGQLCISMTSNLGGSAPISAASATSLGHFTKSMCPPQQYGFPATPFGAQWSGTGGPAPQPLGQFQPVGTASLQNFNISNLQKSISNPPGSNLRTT
Procedure: as §1

[33] = molecular target: SRPK1 (Homo sapiens (Human), UniProt Q96SB4); conditions: read-out: percent of control
Procedure: as §1

[34] = molecular target: YANK1 (Homo sapiens (Human), UniProt Q8WU08); conditions: read-out: percent of control
Procedure: as §1

[35] = molecular target: TRKB (Homo sapiens (Human), UniProt Q16620); conditions: read-out: percent of control
Procedure: as §1

[36] = molecular target: PIK4CB (Homo sapiens (Human), UniProt Q9UBF8); conditions: read-out: percent of control
Procedure: as §1

[37] = molecular target: LRRK2 (Homo sapiens (Human), UniProt Q5S007); conditions: read-out: percent of control
Procedure: as §1

[38] = molecular target: CAMKK1 (Homo sapiens (Human), UniProt Q8N5S9); conditions: read-out: percent of control
Procedure: as §1

Row | Compound | percent of control [1] | remaining binding at 1 µM [2] | remaining binding at 1 µM [3] | remaining binding at 1 µM [4] | remaining binding at 1 µM [5] | remaining binding at 1 µM [6] | remaining binding at 1 µM [7] | remaining binding at 1 µM [8] | remaining binding at 1 µM [9] | remaining binding at 1 µM [10] | remaining binding at 1 µM [11] | remaining binding at 1 µM [12] | remaining binding at 1 µM [13] | remaining binding at 1 µM [14] | percent of control [15] | remaining binding at 1 µM [16] | remaining binding at 1 µM [17] | remaining binding at 1 µM [18] | remaining binding at 1 µM [19] | remaining binding at 1 µM [20] | further results
1 | CCN1CCN(Cc2cc(NC(=O)c3ccc(C)c(-c4ccc5nc(NC(=O)C6CC6)cn5n4)c3)cc(C(F)(F)F)c2)CC1 [Compound I-2, 3-(2-(cyclopropanecarboxamido)imidazo[1,2-b]pyridazin-6-yl)-N-(3-((4-ethylpiperazin-1-yl)methyl)-5-(trifluoromethyl)phenyl)-4-methylbenzamide] | 61% | 86% | 84% | 19% | 76% | 85% | 93% | 1.3% | 100% | 69% | 28% | 96% | 11% | 97% | 29% | 90% | 98% | 91% | 93% | 0.1% | remaining binding at 1 µM [21]: 82%; remaining binding at 1 µM [22]: 94%; remaining binding at 1 µM [23]: 0.05%; remaining binding at 1 µM [24]: 0.3%; remaining binding at 1 µM [25]: 1%; remaining binding at 1 µM [26]: 0.05%; remaining binding at 1 µM [27]: 78%; remaining binding at 1 µM [28]: 84%; remaining binding at 1 µM [29]: 30%; remaining binding at 1 µM [30]: 1.9%; remaining binding at 1 µM [31]: 100%; remaining binding at 1 µM [32]: 100%; remaining binding at 1 µM [33]: 85%; remaining binding at 1 µM [34]: 93%; remaining binding at 1 µM [35]: 0.05%; remaining binding at 1 µM [36]: 97%; remaining binding at 1 µM [37]: 100%; remaining binding at 1 µM [38]: 12%
2 | CCN1CCN(Cc2cc(NC(=O)c3ccc(C)c(-c4ccc5nc(NC(=O)C6CC6)cn5c4)c3)cc(C(F)(F)F)c2)CC1 [Compound I-6, 3-(2-(cyclopropanecarboxamido)imidazo[1,2-a]pyridin-6-yl)-N-(3-((4-ethylpiperazin-1-yl)methyl)-5-(trifluoromethyl)phenyl)-4-methylbenzamide] | 76% | 100% | 86% | 12% | 94% | 94% | 78% | 0% | 100% | 59% | 78% | 96% | 21% | 94% | 12% | 90% | 59% | 96% | 86% | 0% | remaining binding at 1 µM [21]: 92%; remaining binding at 1 µM [22]: 77%; remaining binding at 1 µM [23]: 0%; remaining binding at 1 µM [24]: 0.75%; remaining binding at 1 µM [25]: 2.5%; remaining binding at 1 µM [26]: 0%; remaining binding at 1 µM [27]: 91%; remaining binding at 1 µM [28]: 100%; remaining binding at 1 µM [29]: 29%; remaining binding at 1 µM [30]: 0.65%; remaining binding at 1 µM [31]: 90%; remaining binding at 1 µM [32]: 100%; remaining binding at 1 µM [33]: 57%; remaining binding at 1 µM [34]: 93%; remaining binding at 1 µM [35]: 0%; remaining binding at 1 µM [36]: 96%; remaining binding at 1 µM [37]: 87%; remaining binding at 1 µM [38]: 53%
